In PMC3269340, “Pharmacokinetics of memantine in rats and mice” (PLoS Currents, 2012):

Key:
human PEPT2 = target: T1, human PEPT2 (Homo sapiens, UniProt Q16348); assay: Indirect uptake transporter assay, PEPT2; assay type: in vitro ADME
T1 construct: expressed in transfected cells; host or cells: CHO cells
T1 sequence (Q16348 1-729): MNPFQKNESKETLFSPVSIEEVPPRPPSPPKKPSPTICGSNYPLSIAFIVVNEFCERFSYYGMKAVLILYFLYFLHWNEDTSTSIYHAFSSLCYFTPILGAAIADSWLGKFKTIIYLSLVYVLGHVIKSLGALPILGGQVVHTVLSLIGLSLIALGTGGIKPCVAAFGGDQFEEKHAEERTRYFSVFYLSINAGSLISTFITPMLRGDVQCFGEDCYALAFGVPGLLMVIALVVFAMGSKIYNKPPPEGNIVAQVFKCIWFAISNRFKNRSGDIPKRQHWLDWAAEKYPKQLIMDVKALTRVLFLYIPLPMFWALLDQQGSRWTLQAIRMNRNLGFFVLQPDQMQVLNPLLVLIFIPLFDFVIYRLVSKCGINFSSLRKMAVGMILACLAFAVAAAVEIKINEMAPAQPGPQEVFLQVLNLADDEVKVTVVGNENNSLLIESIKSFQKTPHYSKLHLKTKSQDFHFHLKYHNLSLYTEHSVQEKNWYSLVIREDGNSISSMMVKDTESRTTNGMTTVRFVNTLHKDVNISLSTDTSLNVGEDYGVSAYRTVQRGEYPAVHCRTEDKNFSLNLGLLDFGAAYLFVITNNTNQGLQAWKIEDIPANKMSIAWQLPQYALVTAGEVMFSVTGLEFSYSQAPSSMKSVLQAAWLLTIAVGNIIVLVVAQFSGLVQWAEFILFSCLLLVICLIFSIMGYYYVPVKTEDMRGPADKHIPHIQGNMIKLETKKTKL
From the text: To determine whether memantine is an inhibitor of the human OATP2B1 (OATP-B), OCT1, OCT2, OAT3, PEPT1, PEPT2 uptake transporters. The standard uptake transporter assay is an indirect, inhibitory-type screening assay, performed with cold test article, which in this case was memantine. It provides information on any interaction (substrate or inhibitor) between selected uptake transporters and memantine that would affect the transport of the reporter compound. […] A radiolabeled reporter substrate is transported into the cells transfected with the selected human uptake transporter, and the inhibitory effect of memantine on the transport of this reporter substrate is measured. Values are presented on a relative scale; 100% defined as transport in the presence of the solvent and without memantine (no inhibition), and 0% defined as transport detected without transporter activity. IC50 is defined as the concentration required to inhibit the transport of the reporter substrate by 50%. […]
After the experiment cells were rinsed with 2 x 100µl of Krebs-Henseleit buffer and lysed with 50 µl of 0.1M NaOH. ^3H-estrone-3-sulfate, ^14C-TEA, ^14C-metformin and ^3H-Gly-Sar transport was determined by total radioactivity by transferring an aliquot (35µl) from each well to a vial containing liquid scintillant for analysis.

[1] = tested on: Alzheimer's disease patients; conditions: cited from earlier work
Caco2 cells = assay: Bidirectional Caco permeability; assay type: in vitro ADME; conditions: Caco2 cells
Method: (§1) CacoReady ^TM 24-transwell plates with plated Caco cells were purchased from Advancell, and were prepared for the experiments following manufacturer’s instructions. Memantine and reference compounds (propranolol, digoxin and vinblatine) were added to either the apical or basolateral chambers of the transwell plate assembly at a concentration of 10 μM prepared in Hanks’ Balanced Salt Solution containing 25 mM HEPES (pH7.4). Lucifer Yellow (LY) was added to the donor buffer in all wells to assess viability of the cell layer. Since LY cannot freely permeate lipophilic barriers, results were rejected when a high degree of LY transport (>100nm/s) was observed. After a 1 h incubation at 37°C, aliquots were taken from both chambers and added to acetonitrile containing an analytical internal standard in a 96-well plate. Concentrations of compound in the samples were measured by (HPLC-MS/MS).
(§2) Papp values were calculated from the relationship:
(§3) Papp = ([compound]acceptor final × Va )/ (A × time ([compound]donor initial )
(§4) The efflux ratio (Er) was calculated as
(§5) Er = Papp (B to A) / Papp (A to B)

[2] = Bidirectional Caco permeability; assay type: in vitro ADME; conditions: human, Caco-2, pH 7.4
Method: as §1, §2, §3, §4, §5

For `CC12CC3CC(C)(C1)CC(N)(C3)C2` [memantine], the “IC50” value (human PEPT2; PEPT2, probe printed in Table 5: E3S (0.3µM), methods and text: Gly-Sar) is given as “ND (Not Determined (< 50% inhibition))”, the inhibition at 300 µM (human PEPT2; at 300 µM, read-out: inhibition of PEPT2-mediated glycylsarcosine transport) is given as 22% and the “efficacy in dementia patients” value ([1]; 10 mg single daily dose for 12 weeks) is given as “demonstrated efficacy”. For the same molecule, the “efficacy in moderate to severe AD” value ([1]; humans, 10 mg twice daily, 6-month study) was “efficacious”, the “MDR1 (Pgp) substrate” value (Caco2 cells) was “not a MDR1 (Pgp) substrate” and the Papp A→B at 1 h, 10 μM ([2]; 10 μM, pH7.4, 1 h, read-out: Caco Permeability AtoB) was 43.4 ×10⁻⁶ cm/s. The Papp B→A at 1 h, 10 μM ([2]; 10 μM, pH7.4, 1 h, read-out: Caco Permeability BtoA) was 47 ×10⁻⁶ cm/s and the efflux ratio at 1 h, 10 μM ([2]; Papp (B to A) / Papp (A to B), read-out: ER (efflux ratio)) was ~1.
